From article PMC9856672, “SGC-CAMKK2-1: A Chemical Probe for CAMKK2” (Cells, 2023) come the findings set out here.

One assay has as its target T1, IRAK1 (Homo sapiens, UniProt P51617).
T1 construct: purchased Eurofins DiscoverX KINOMEscan
Briefly: KINOMEscan 1 μM, IRAK1. It is filed as binding. The following applies: 1000 nM; Entrez IRAK1; read-out: Percent Control. From the text:
(§1) Supplement cells-12-00287-s001.zip/File S2. KinomeScan data for the CAMKK2 probe and negative control.xlsx, sheet "SGC-CAMKK2-1" | column: Percent Control

The target of the next assay is T2, CSNK1D (Homo sapiens, UniProt P48730).
T2 construct: purchased Eurofins DiscoverX KINOMEscan
Briefly: KINOMEscan 1 μM, CSNK1D. It is filed as binding. The note with it: 1000 nM; Entrez CSNK1D; read-out: Percent Control.
Description: as §1

In another assay the target is T3, ERK1 (Homo sapiens, UniProt P27361).
T3 construct: purchased Eurofins DiscoverX KINOMEscan
T3 sequence (P27361 whole entry): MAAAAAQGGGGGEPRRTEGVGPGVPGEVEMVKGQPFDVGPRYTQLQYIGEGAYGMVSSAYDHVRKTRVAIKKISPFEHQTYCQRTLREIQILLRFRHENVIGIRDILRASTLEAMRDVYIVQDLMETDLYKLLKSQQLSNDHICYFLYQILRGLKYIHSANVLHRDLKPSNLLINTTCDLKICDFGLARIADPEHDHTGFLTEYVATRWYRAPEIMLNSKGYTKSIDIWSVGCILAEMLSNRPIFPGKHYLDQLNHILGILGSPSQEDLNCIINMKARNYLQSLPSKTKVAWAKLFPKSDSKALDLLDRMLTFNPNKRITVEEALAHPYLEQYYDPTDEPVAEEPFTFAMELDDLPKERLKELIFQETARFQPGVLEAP
Briefly: KINOMEscan 1 μM, ERK1. It is filed as binding. The note with it: 1000 nM; Entrez MAPK3; read-out: Percent Control.
Description: as §1

Another assay deals with T4, GRK3 (Homo sapiens, UniProt P35626).
T4 construct: purchased Eurofins DiscoverX KINOMEscan
The assay can be described thus: KINOMEscan 1 μM, GRK3. It counts as binding. The note with it: 1000 nM; Entrez ADRBK2; read-out: Percent Control.
Description: as §1

The target of the next assay is T5, CAMK2D (Homo sapiens, UniProt Q13557).
T5 construct: purchased Eurofins DiscoverX KINOMEscan
Briefly: KINOMEscan 1 μM, CAMK2D. It counts as binding. The note with it: 1000 nM; Entrez CAMK2D; read-out: Percent Control.
Description: as §1

The target in a further assay is T6, WNK2 (Homo sapiens, UniProt Q9Y3S1).
T6 construct: purchased Eurofins DiscoverX KINOMEscan
The assay can be described thus: KINOMEscan 1 μM, WNK2. It is filed as binding. The note with it: 1000 nM; Entrez WNK2; read-out: Percent Control.
Description: as §1

Assay [1] addresses T7, JAK1(JH1domain-catalytic) (Homo sapiens, UniProt P23458).
T7 construct: JAK1(JH1domain-catalytic); purchased Eurofins DiscoverX KINOMEscan
The assay can be described thus: KINOMEscan 1 μM, JAK1(JH1domain-catalytic). It counts as binding. The following applies: 1000 nM; Entrez JAK1; read-out: Percent Control.
Description: as §1

Another assay concerns the target T8, YANK2 (Homo sapiens, UniProt Q9NY57).
T8 construct: purchased Eurofins DiscoverX KINOMEscan
The assay can be described thus: DiscoverX KINOMEscan binding assay at 1 μM, YANK2. The note with it: YANK2 (STK32B); Compound Concentration 1000 nM; read-out: Percent Control.
Description: as §1

In a further assay the target is T9, CDK3 (Homo sapiens, UniProt Q00526).
T9 construct: purchased Eurofins DiscoverX KINOMEscan
The assay can be described thus: KINOMEscan 1 μM, CDK3. The note with it: 1000 nM; Entrez CDK3; read-out: Percent Control. It counts as binding.
Description: as §1

The next assay deals with T10, NEK6 (Homo sapiens, UniProt Q9HC98).
T10 construct: purchased Eurofins DiscoverX KINOMEscan
Briefly: KINOMEscan 1 μM, NEK6. It is filed as binding. The following applies: 1000 nM; Entrez NEK6; read-out: Percent Control.
Description: as §1

In the next assay the target is T11, BMPR2 (Homo sapiens, UniProt Q13873).
T11 construct: purchased Eurofins DiscoverX KINOMEscan
Briefly: KINOMEscan at 1 μM, BMPR2. The following applies: 1000 nM, read-out: Percent Control. It counts as binding. From the text: (§2) Supplement cells-12-00287-s001.zip/File S2. KinomeScan data for the CAMKK2 probe and negative control.xlsx, sheet "SGC-CAMKK2-1N" | column: Percent Control

For a further assay, the target named is T12, MST4 (Homo sapiens, UniProt Q9P289).
T12 construct: purchased Eurofins DiscoverX KINOMEscan
T12 sequence (Q9P289 whole entry): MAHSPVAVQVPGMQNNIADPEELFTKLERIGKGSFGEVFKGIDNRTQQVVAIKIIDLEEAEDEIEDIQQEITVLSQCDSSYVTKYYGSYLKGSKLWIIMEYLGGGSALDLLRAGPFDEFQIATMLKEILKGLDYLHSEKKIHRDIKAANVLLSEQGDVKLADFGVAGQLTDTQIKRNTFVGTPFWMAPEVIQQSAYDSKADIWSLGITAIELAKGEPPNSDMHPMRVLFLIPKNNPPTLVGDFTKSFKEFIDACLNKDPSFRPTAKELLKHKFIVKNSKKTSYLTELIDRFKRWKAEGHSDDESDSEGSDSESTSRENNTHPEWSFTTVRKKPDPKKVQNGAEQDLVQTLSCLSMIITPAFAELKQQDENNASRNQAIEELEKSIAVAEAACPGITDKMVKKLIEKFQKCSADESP
The assay can be described thus: KINOMEscan at 1 μM, MST4. It counts as binding. The following applies: 1000 nM, read-out: Percent Control.
Description: as §2

The target of assay [2] is T13, ABL1(T315I)-nonphosphorylated (Homo sapiens, UniProt P00519, T315I).
T13 construct: purchased Eurofins DiscoverX KINOMEscan
Briefly: KINOMEscan at 1 μM, ABL1(T315I)-nonphosphorylated. It is filed as binding. The note with it: 1000 nM, read-out: Percent Control.
Description: as §2

The next assay concerns the target T14, TGFBR2 (Homo sapiens, UniProt P37173).
T14 construct: purchased Eurofins DiscoverX KINOMEscan
Briefly: KINOMEscan binding assay at 1 μM, TGFBR2. The following applies: Compound Concentration 1000 nM; read-out: Percent Control.
Description: as §2

Another assay has as its target T15, ASK1 (Homo sapiens, UniProt Q99683).
T15 construct: purchased Eurofins DiscoverX KINOMEscan
Briefly: KINOMEscan at 1 μM, ASK1. It counts as binding. The following applies: 1000 nM, read-out: Percent Control.
Description: as §2

In the next assay the target is T16, NEK4 (Homo sapiens, UniProt P51957).
T16 construct: purchased Eurofins DiscoverX KINOMEscan
Briefly: KINOMEscan at 1 μM, NEK4. It counts as binding. The note with it: 1000 nM, read-out: Percent Control.
Description: as §2

A further assay has as its target T17, MEK6 (Homo sapiens, UniProt P52564).
T17 construct: purchased Eurofins DiscoverX KINOMEscan
Briefly: KINOMEscan at 1 μM, MEK6. It counts as binding. The following applies: 1000 nM, read-out: Percent Control.
Description: as §2

For a further assay, the target named is T18, MAP3K3 (Homo sapiens, UniProt Q99759).
T18 construct: purchased Eurofins DiscoverX KINOMEscan
The assay can be described thus: KINOMEscan at 1 μM, MAP3K3. It counts as binding. The following applies: 1000 nM, read-out: Percent Control.
Description: as §2

The target of the next assay is T19, CDKL1 (Homo sapiens, UniProt Q00532).
T19 construct: purchased Eurofins DiscoverX KINOMEscan
Briefly: KINOMEscan at 1 μM, CDKL1. It is filed as binding. The note with it: 1000 nM, read-out: Percent Control.
Description: as §2

A further assay deals with T20, PFTAIRE2 (Homo sapiens, UniProt Q96Q40).
T20 construct: purchased Eurofins DiscoverX KINOMEscan
The assay can be described thus: KINOMEscan at 1 μM, PFTAIRE2. It counts as binding. The following applies: 1000 nM, read-out: Percent Control.
Description: as §2

The target in the next assay is T21, MKK7 (Homo sapiens, UniProt O14733).
T21 construct: purchased Eurofins DiscoverX KINOMEscan
The assay can be described thus: KINOMEscan at 1 μM, MKK7. The following applies: 1000 nM, read-out: Percent Control. It is filed as binding.
Description: as §2

In the next assay the target is T22, MST3 (Homo sapiens, UniProt Q9Y6E0).
T22 construct: purchased Eurofins DiscoverX KINOMEscan
T22 sequence (Q9Y6E0 whole entry): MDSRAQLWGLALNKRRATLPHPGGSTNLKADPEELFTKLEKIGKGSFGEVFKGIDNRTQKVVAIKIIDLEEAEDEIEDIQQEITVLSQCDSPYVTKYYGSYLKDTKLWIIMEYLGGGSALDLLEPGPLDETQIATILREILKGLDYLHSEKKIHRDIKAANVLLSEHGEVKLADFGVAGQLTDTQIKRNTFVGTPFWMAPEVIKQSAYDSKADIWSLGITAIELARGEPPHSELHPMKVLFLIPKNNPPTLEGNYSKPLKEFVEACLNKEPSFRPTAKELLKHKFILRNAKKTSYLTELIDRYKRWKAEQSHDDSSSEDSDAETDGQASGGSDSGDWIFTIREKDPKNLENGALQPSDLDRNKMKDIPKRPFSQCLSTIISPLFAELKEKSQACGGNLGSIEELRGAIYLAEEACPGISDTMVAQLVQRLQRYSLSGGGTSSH
Briefly: KINOMEscan binding assay at 1 μM, MST3. The note with it: Compound Concentration 1000 nM; read-out: Percent Control.
Description: as §2

Assay [3] has as its target T23, ABL1(F317L)-nonphosphorylated (Homo sapiens, UniProt P00519, F317L).
T23 construct: purchased Eurofins DiscoverX KINOMEscan
Briefly: KINOMEscan at 1 μM, ABL1(F317L)-nonphosphorylated. It is filed as binding. The following applies: 1000 nM, read-out: Percent Control.
Description: as §2

The next assay has as its target T24, PIK3CA(C420R) (Homo sapiens, UniProt P42336, C420R).
T24 construct: purchased Eurofins DiscoverX KINOMEscan
The assay can be described thus: KINOMEscan at 1 μM, PIK3CA(C420R). It is filed as binding. The note with it: 1000 nM, read-out: Percent Control.
Description: as §2

A further assay concerns the target T25, FGR (Homo sapiens, UniProt P09769).
T25 construct: purchased Eurofins DiscoverX KINOMEscan
Briefly: KINOMEscan at 1 μM, FGR. The following applies: 1000 nM, read-out: Percent Control. It counts as binding.
Description: as §2

The target in assay [4] is T26, ABL1(Q252H)-nonphosphorylated (Homo sapiens, UniProt P00519, Q252H).
T26 construct: purchased Eurofins DiscoverX KINOMEscan
The assay can be described thus: KINOMEscan at 1 μM, ABL1(Q252H)-nonphosphorylated. It counts as binding. The note with it: 1000 nM, read-out: Percent Control.
Description: as §2

The target in a further assay is T27, FLT3 (Homo sapiens, UniProt P36888).
T27 construct: purchased Eurofins DiscoverX KINOMEscan
The assay can be described thus: KINOMEscan at 1 μM, FLT3. The following applies: 1000 nM, read-out: Percent Control. It counts as binding.
Description: as §2

The target in a further assay is T28, MARK1 (Homo sapiens, UniProt Q9P0L2).
T28 construct: purchased Eurofins DiscoverX KINOMEscan
Briefly: KINOMEscan at 1 μM, MARK1. It is filed as binding. The following applies: 1000 nM, read-out: Percent Control.
Description: as §2

Another assay concerns the target T29, PRP4 (Homo sapiens, UniProt Q13523).
T29 construct: purchased Eurofins DiscoverX KINOMEscan
The assay can be described thus: KINOMEscan binding assay at 1 μM, PRP4. The note with it: Compound Concentration 1000 nM; read-out: Percent Control.
Description: as §2

The next assay deals with T30, PRKCQ (Homo sapiens, UniProt Q04759).
T30 construct: purchased Eurofins DiscoverX KINOMEscan
T30 sequence (Q04759 whole entry): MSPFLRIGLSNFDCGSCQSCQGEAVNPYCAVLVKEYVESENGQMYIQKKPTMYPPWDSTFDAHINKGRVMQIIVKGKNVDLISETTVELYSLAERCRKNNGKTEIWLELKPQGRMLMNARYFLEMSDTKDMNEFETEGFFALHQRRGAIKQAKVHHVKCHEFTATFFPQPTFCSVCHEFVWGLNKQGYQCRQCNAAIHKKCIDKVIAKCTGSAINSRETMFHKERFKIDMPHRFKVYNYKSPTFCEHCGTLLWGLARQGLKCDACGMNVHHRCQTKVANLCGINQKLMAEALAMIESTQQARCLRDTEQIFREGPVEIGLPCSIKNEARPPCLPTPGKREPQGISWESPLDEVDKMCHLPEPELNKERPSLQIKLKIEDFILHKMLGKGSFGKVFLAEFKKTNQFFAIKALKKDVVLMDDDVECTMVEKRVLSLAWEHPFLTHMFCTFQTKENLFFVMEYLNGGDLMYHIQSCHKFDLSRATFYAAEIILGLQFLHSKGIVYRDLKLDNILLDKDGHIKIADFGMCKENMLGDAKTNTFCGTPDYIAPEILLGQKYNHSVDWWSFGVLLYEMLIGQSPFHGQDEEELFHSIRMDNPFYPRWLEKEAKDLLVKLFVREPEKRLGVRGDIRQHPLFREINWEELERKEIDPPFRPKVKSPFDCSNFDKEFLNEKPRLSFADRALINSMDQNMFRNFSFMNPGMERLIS
The assay can be described thus: KINOMEscan binding assay at 1 μM, PRKCQ. The following applies: Compound Concentration 1000 nM; read-out: Percent Control.
Description: as §2

A further assay concerns the target T31, MTOR (Homo sapiens, UniProt P42345).
T31 construct: purchased Eurofins DiscoverX KINOMEscan
The assay can be described thus: KINOMEscan binding assay at 1 μM, MTOR. The following applies: Compound Concentration 1000 nM; read-out: Percent Control.
Description: as §2

Assay [5] deals with T32, RSK4(Kin.Dom.2-C-terminal) (Homo sapiens, UniProt Q9UK32).
T32 construct: RSK4(Kin.Dom.2-C-terminal); purchased Eurofins DiscoverX KINOMEscan
T32 sequence (Q9UK32 401-745 limits assumed): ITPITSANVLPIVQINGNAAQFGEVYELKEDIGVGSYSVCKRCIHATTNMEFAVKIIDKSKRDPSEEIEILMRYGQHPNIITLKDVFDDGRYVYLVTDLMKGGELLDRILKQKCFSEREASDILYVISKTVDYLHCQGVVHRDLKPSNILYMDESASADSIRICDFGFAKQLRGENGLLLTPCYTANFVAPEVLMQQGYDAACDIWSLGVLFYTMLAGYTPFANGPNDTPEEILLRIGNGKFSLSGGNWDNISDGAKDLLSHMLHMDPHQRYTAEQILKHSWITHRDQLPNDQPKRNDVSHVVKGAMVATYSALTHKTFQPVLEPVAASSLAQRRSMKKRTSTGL
The assay can be described thus: KINOMEscan binding assay at 1 μM, RSK4(Kin.Dom.2-C-terminal). The following applies: Compound Concentration 1000 nM; read-out: Percent Control.
Description: as §2

A further assay addresses T33, AURKB (Homo sapiens, UniProt Q96GD4).
T33 construct: purchased Eurofins DiscoverX KINOMEscan
Briefly: KINOMEscan at 1 μM, AURKB. It is filed as binding. The note with it: 1000 nM, read-out: Percent Control.
Description: as §2

Another assay has as its target T34, CDK4 (Homo sapiens, UniProt P11802).
T34 construct: purchased Eurofins DiscoverX KINOMEscan
The assay can be described thus: KINOMEscan at 1 μM, CDK4. It counts as binding. The following applies: 1000 nM, read-out: Percent Control.
Description: as §2

T1 sequence (P51617 whole entry): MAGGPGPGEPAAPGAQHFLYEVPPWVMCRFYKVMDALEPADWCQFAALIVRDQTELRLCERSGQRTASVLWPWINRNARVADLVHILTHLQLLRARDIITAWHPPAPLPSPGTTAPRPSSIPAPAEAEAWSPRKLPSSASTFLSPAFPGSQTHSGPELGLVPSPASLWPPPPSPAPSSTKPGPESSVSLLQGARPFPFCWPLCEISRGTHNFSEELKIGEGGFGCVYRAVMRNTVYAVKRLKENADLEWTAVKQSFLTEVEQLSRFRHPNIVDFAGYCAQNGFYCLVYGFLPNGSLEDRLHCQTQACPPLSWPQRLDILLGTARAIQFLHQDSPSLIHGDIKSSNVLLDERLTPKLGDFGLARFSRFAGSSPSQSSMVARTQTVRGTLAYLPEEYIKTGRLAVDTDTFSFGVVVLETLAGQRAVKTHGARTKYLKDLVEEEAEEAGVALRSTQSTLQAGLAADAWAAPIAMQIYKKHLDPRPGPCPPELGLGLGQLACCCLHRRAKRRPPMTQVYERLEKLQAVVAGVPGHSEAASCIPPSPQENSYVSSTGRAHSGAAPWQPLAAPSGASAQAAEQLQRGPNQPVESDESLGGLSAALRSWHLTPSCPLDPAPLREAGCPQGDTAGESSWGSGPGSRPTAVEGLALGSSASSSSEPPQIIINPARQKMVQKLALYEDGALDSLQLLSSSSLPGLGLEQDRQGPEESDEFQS
T25 sequence (P09769 whole entry): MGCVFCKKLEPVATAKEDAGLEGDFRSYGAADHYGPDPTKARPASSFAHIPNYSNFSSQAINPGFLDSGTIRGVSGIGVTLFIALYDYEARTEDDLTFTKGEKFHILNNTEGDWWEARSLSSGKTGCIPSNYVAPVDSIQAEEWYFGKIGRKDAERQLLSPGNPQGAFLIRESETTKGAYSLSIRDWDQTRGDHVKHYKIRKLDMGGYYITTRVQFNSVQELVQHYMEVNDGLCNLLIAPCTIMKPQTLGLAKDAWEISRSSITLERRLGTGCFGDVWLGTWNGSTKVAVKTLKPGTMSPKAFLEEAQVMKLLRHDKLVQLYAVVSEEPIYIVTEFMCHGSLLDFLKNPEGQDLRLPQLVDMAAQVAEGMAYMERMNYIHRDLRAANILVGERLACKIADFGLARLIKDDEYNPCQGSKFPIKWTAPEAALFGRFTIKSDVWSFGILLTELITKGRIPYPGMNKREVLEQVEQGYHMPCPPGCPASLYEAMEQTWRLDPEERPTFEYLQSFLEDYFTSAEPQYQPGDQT
T8 sequence (Q9NY57 whole entry): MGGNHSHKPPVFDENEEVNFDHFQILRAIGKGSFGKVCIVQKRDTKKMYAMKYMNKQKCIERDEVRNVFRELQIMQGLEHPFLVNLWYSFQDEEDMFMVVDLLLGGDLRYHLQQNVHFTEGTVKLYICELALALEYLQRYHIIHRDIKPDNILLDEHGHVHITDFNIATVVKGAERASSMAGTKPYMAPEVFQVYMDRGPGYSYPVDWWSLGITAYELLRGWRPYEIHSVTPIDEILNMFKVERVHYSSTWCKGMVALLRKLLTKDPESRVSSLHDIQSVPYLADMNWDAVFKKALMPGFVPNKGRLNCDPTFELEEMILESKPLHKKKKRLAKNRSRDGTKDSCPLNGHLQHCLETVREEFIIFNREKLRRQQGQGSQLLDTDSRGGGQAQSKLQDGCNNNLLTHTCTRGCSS
T29 sequence (Q13523 whole entry): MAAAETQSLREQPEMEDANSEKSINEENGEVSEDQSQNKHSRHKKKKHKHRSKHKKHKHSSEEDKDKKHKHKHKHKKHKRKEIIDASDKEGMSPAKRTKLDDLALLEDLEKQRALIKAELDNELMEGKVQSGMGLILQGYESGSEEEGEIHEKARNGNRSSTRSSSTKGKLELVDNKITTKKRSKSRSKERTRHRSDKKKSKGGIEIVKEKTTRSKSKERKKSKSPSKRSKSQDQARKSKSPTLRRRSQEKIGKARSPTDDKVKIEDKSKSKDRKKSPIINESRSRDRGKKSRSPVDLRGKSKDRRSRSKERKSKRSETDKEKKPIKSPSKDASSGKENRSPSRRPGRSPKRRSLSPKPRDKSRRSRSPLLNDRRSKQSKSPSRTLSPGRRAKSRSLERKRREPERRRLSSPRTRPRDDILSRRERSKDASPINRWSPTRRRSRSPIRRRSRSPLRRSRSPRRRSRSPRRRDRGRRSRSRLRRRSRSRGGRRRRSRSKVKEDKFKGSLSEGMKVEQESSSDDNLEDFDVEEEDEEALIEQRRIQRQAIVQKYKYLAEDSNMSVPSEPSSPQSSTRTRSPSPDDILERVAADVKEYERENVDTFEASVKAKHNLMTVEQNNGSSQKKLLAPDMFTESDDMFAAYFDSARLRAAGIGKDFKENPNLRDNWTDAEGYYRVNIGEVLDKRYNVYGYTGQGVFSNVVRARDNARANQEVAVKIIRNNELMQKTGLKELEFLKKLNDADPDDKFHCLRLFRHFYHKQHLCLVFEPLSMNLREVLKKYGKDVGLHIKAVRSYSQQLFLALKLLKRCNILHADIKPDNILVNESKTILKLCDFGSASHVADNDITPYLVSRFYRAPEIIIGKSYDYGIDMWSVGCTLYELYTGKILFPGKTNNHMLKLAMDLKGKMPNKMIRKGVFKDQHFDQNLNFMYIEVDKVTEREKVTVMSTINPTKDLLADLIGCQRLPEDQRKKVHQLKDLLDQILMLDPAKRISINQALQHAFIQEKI

Regarding `Cc1cccc(-c2cnc3occ(-c4ccc(C(=O)O)c(C5CCCC5)c4)c3c2)c1` [SGC-CAMKK2-1 (YL-36)], the remaining binding at 1 µM on IRAK1 was found to be 100%; at CSNK1D it was 100%; on ERK1, 100%; at GRK3, 100%; at CAMK2D it was 98%; at WNK2, 67%. Further, the remaining binding at 1 µM in [1] is 85%; at YANK2, 100%; at CDK3 it was 59%; at NEK6, 100%.

Take `O=C(O)c1ccc(-c2coc3ncc(-c4ccccc4)cc23)cc1Cl` [SGC-CAMKK2-1N (UNC-YL-83)]: the remaining binding at 1 µM stood at 71% on BMPR2; 64% on MST4; 45% in assay [2]; 100% on TGFBR2; 100% at ASK1; 66% on NEK4. Also, the remaining binding at 1 µM on MEK6 was 46%; at MAP3K3, 47%; on CDKL1 it was 72%; at PFTAIRE2 it was 76%; at MKK7, 82%; on MST3, 100%. Also, the remaining binding at 1 µM in [3] was 100%; at PIK3CA(C420R), 0%; at FGR, 54%; in assay [4], 59%; at FLT3 it was 91%; on MARK1, 97%. Besides, the remaining binding at 1 µM at PRP4 turned out to be 100%; at PRKCQ, 100%; at MTOR, 100%; in assay [5], 100%; on AURKB, 62%; on CDK4, 82%.
